Laboratory results published in publication PMC8587871, “Novel Thiosemicarbazone Derivatives: In Vitro and In Silico Evaluation as Potential MAO-B Inhibitors” (Molecules, 2021).

What was measured:
[1] = target: T1, hMAO-A (Homo sapiens, UniProt P21397); test: In vitro fluorometric MAO-A inhibition assay; type: biochemical; conditions: for inhibition at 1000 µM: 10^−3 M; for inhibition at 100 µM: 10^−4 M
T1 sequence (P21397 1-527): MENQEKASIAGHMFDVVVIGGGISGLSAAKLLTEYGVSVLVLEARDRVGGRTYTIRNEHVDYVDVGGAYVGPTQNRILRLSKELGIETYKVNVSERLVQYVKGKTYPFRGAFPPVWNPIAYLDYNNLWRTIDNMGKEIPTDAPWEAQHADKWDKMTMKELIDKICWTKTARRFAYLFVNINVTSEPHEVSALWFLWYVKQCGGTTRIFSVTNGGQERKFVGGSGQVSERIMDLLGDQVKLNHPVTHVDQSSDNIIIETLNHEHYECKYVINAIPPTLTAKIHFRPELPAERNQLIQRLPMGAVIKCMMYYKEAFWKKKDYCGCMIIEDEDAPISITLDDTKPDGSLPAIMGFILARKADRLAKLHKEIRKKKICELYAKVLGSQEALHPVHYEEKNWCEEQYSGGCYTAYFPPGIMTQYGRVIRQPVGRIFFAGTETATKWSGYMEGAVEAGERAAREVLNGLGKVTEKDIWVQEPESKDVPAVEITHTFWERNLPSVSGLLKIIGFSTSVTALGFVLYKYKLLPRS
Method: (§1) The inhibition power on MAO isoenzymes of the synthesized compounds was evaluated by using the in vitro fluorometric method declared previously by our research group.
(§2) The in vitro MAO inhibition test was performed using the available fluorometric method, and the percentages and IC50 values of obtained compounds were calculated as previously described by our research group.

[2] = target: T2, hMAO-B (Homo sapiens, UniProt P27338); test: In vitro fluorometric MAO-B inhibition assay; type: biochemical; conditions: for inhibition at 1000 µM: 10^−3 M; for inhibition at 100 µM: 10^−4 M; for inhibition at 10 µM: 10^−5 M; for inhibition at 1 µM: 10^−6 M; for inhibition at 0.1 µM: 10^−7 M; for inhibition at 0.01 µM: 10^−8 M; for inhibition at 0.001 µM: 10^−9 M; for IC50: read-out: IC50 against MAO-B
T2 sequence (P27338 1-520): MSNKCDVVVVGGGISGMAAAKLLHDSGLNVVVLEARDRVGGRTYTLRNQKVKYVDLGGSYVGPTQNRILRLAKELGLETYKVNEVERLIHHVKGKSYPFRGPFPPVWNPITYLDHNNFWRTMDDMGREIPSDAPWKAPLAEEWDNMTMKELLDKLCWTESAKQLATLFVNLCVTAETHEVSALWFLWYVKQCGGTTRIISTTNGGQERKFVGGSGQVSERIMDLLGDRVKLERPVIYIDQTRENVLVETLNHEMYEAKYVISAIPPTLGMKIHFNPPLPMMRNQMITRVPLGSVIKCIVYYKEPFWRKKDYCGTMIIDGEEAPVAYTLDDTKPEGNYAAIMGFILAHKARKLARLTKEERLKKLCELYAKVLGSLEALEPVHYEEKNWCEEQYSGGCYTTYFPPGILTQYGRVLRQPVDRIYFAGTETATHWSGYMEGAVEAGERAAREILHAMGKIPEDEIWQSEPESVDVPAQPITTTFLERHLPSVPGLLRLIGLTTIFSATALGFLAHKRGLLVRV
Method: as §1, §2

[3] = target: T2, hMAO-B; test: Enzyme kinetic study (Lineweaver–Burk and secondary plots) of hMAO-B inhibition; type: biochemical; conditions: substrate tyramine; for Type of hMAO-B inhibition: Lineweaver–Burk plots; for Ki: secondary plots, read-out: Ki (steady-state inhibition constant) for hMAO-B
Source text: Enzyme kinetic studies help to determine the inhibitory character of the relevant compound on the enzyme as irreversible or reversible inhibition, and to evaluate the nature of the inhibition of the relevant compound. The linear Lineweaver–Burk plots are the most commonly used method for this purpose. […] Enzyme kinetic assay was applied in the same way as previously mentioned. […] The rate curves of substrates were reported in the absence and presence of these compounds. In all cases, initial velocity measurements were collected at various substrate (tyramine) concentrations ranging from 20 µM to 0.625 µM. Thus, linear Lineweaver–Burk graphs of compounds 2b and 2h were formed as in Figure 4A and Figure 5A, respectively.
According to Lineweaver–Burk plots, reversible and irreversible inhibition type constitute two general categories. Mixed-type, uncompetitive, competitive, and non-competitive inhibition types are included in the reversible inhibition.
The same materials used in the MAO inhibition assay were used in this experiment. […] All processes were evaluated in quadruplicate. The results were analyzed with Microsoft Office Excel 2013 using Lineweaver–Burk diagrams. […] of the Lineweaver–Burk plots were replotted versus the inhibitors’ concentrations, and the Ki values were determined from the x-axis intercept as -Ki.

[4] = system: NIH/3T3 mouse embryonic fibroblast cell line; test: MTT cytotoxicity assay; type: cell-based; conditions: for Cytotoxicity at effective concentration against MAO-B: MTT assay, NIH/3T3
Method: (§3) The NIH/3T3 mouse embryonic fibroblast cell line (ATCC® CRL-1658™, London, UK) was used for cytotoxicity assays. The incubation period of NIH/3T3 cells was based on the supplier’s recommendation. NIH/3T3 cells were seeded at 1 × 10^4 cells into each well of 96-well plates. MTT assay was carried out in accordance with the standards previously described.

[5] = MTT cytotoxicity assay; type: cell-based, mouse; conditions: mouse, NIH/3T3 mouse embryonic fibroblast cells; MTT assay; read-out: IC50 against NIH/3T3 cells
Method: as §3

SMILES	inhibition at 1000 µM [1] [%]	inhibition at 100 µM [1] [%]	melting point [°C]	inhibition at 1000 µM [2] [%]	inhibition at 100 µM [2] [%]	Type of hMAO-B inhibition [3]	Ki [3] [nM]	inhibition at 10 µM [2] [%]	inhibition at 1 µM [2] [%]	inhibition at 0.1 µM [2] [%]	inhibition at 0.01 µM [2] [%]	inhibition at 0.001 µM [2] [%]	IC50 [2] [nM]	Cytotoxicity at effective concentration against MAO-B [4]	IC50 ([4]; Mus musculus, NIH3T3, Table 3 column 1 as headed) [µM]	IC50 [5] [nM]
S=C(NN=Cc1cc2ccccc2s1)NC1CCCCC1 [Compound 2j, 2-(Benzo[b]thiophen-2-ylmethylene)-N-cyclohexylhydrazine-1-carbothioamide]	33.7 ± 0.729	23 ± 0.863	213.7 to 215.1	82.9 ± 1.62	43 ± 0.965											
S=C(NN=Cc1cc2ccccc2o1)Nc1ccccc1Cl [Compound 2f, 2-(Benzofuran-2-ylmethylene)-N-(2-chlorophenyl)hydrazine-1-carbothioamide]	31.1 ± 0.994	24.2 ± 0.711	203.6 to 204.9	82.4 ± 1.33	47.4 ± 0.93											
CCNC(=S)NN=Cc1cc2ccccc2s1 [Compound 2g, 2-(Benzo[b]thiophen-2-ylmethylene)-N-ethylhydrazine-1-carbothioamide]	38.9 ± 0.854	28.7 ± 0.803	198.9 to 201	79 ± 1.7	44.8 ± 0.758											
CCCCNC(=S)NN=Cc1cc2ccccc2o1 [Compound 2c, 2-(Benzofuran-2-ylmethylene)-N-butylhydrazine-1-carbothioamide]	30.4 ± 0.902	26.7 ± 0.82	120.4 to 121.2	76.3 ± 1.62	43.5 ± 0.728											
CCNC(=S)NN=Cc1cc2ccccc2o1 [Compound 2a, 2-(Benzofuran-2-ylmethylene)-N-ethylhydrazine-1-carbothioamide]	34.1 ± 0.927	22.3 ± 0.824	179.9 to 182.1	74.2 ± 1.41	46.4 ± 0.997											
S=C(NN=Cc1cc2ccccc2o1)NC1CCCCC1 [Compound 2d, 2-(Benzofuran-2-ylmethylene)-N-cyclohexylhydrazine-1-carbothioamide]	37.5 ± 0.897	20.9 ± 0.834	191.2 to 192.9	82.6 ± 1.32	41.1 ± 0.956											
S=C(NN=Cc1cc2ccccc2s1)Nc1ccccc1 [Compound 2k, 2-(Benzo[b]thiophen-2-ylmethylene)-N-phenylhydrazine-1-carbothioamide]	31.1 ± 0.911	27.9 ± 0.815	213.9 to 216	80.5 ± 1.48	46.7 ± 0.899											
CCCCNC(=S)NN=Cc1cc2ccccc2s1 [Compound 2i, 2-(Benzo[b]thiophen-2-ylmethylene)-N-butylhydrazine-1-carbothioamide]	35.7 ± 0.863	29.2 ± 0.816	168.9 to 170.7	84.7 ± 1.63	46 ± 0.931											
S=C(NN=Cc1cc2ccccc2s1)Nc1ccccc1Cl [Compound 2l, 2-(Benzo[b]thiophen-2-ylmethylene)-N-(2-chlorophenyl)hydrazine-1-carbothioamide]	36.7 ± 0.966	24.4 ± 0.721	212.6 to 214.4	83.6 ± 1.6	42.2 ± 0.763											
COCCNC(=S)NN=Cc1cc2ccccc2o1 [Compound 2b, 2-(Benzofuran-2-ylmethylene)-N-(2-methoxyethyl)hydrazine-1-carbothioamide]	33 ± 0.955	28.4 ± 0.899	147.5 to 148.8	91.6 ± 1.65		reversible and non-competitive	35	81.5 ± 1.72	75 ± 1.63	66.4 ± 0.975	41.5 ± 0.856	25.8 ± 0.765	42 ± 2	non-cytotoxic	0.042 ± 0.002	130000
S=C(NN=Cc1cc2ccccc2o1)Nc1ccccc1 [Compound 2e, 2-(Benzofuran-2-ylmethylene)-N-phenylhydrazine-1-carbothioamide]	36.7 ± 0.91	23.4 ± 0.832	205.2 to 206.8	85.5 ± 1.53	40.8 ± 0.827											
COCCNC(=S)NN=Cc1cc2ccccc2s1 [Compound 2h, 2-(Benzo[b]thiophen-2-ylmethylene)-N-(2-methoxyethyl)hydrazine-1-carbothioamide]	36.8 ± 0.741	21.9 ± 0.75	164.9 to 166.2	90.4 ± 1.6		reversible and non-competitive	46	80.8 ± 1.04	72.2 ± 1.39	65 ± 1.11	42.8 ± 0.948	30.9 ± 0.782	56 ± 2	non-cytotoxic		81300
